A melting point of 230 to 231 °C was found for Oc1cccc(OCC(O)CNCc2ccc3c(c2)OCO3)c1 (stereo not shown) [Compound 1e, N-((1,3-Benzodioxol-5-yl)methyl)-2-hydroxy-3-(3-hydroxyphenoxy)propylamine] in this work.

From patent US6890955B2, “Aryloxypropanolamine derivatives, method of preparation and applications thereof” (Virbac SA, priority 1996, dated 2005)
